In the NIST ThermoML archive (doi:10.1016/j.jct.2016.03.021):

Experiment: wn = mass fraction of the nth substance listed
Settings: Liquid; for mass density: Vibrating tube method

NCCO [2-aminoethan-1-ol] + O
viscosity [mPa·s]
Settings	w1 = 0.1	w1 = 0.1001	w1 = 0.2	w1 = 0.3	w1 = 0.3005	w1 = 0.4	w1 = 0.4001
293.15 K, 93 kPa, Concentric cylinders viscometry	1.409	–	1.982	2.967	–	4.326	–
293.15 K, 100 kPa, Falling or rolling sphere viscometry	–	1.435	1.968	–	2.913	–	4.315
293.15 K, 101 kPa, Falling or rolling sphere viscometry	1.435	–	1.968	2.913	–	4.315	–
293.15 K, 5000 kPa, Falling or rolling sphere viscometry	–	1.435	1.97	–	2.921	–	4.34
293.15 K, 10000 kPa, Falling or rolling sphere viscometry	–	1.434	1.969	–	2.93	–	4.368
293.15 K, 20000 kPa, Falling or rolling sphere viscometry	–	1.43	1.973	–	2.952	–	4.426
293.15 K, 30000 kPa, Falling or rolling sphere viscometry	–	1.43	1.977	–	2.972	–	4.475
293.15 K, 40000 kPa, Falling or rolling sphere viscometry	–	1.429	1.983	–	2.99	–	4.528
293.15 K, 60000 kPa, Falling or rolling sphere viscometry	–	1.431	1.994	–	3.032	–	4.628
293.15 K, 80000 kPa, Falling or rolling sphere viscometry	–	1.434	2.009	–	3.076	–	4.739
293.15 K, 100000 kPa, Falling or rolling sphere viscometry	–	1.432	2.026	–	3.12	–	4.845
293.15 K, 120000 kPa, Falling or rolling sphere viscometry	–	1.443	2.046	–	3.162	–	4.954
313.15 K, 93 kPa, Concentric cylinders viscometry	0.8932	–	1.198	1.675	–	2.284	–
313.15 K, 100 kPa, Falling or rolling sphere viscometry	–	0.891	1.173	–	1.638	–	2.284
313.15 K, 101 kPa, Falling or rolling sphere viscometry	0.891	–	1.173	1.638	–	2.284	–
313.15 K, 5000 kPa, Falling or rolling sphere viscometry	–	0.892	1.178	–	1.642	–	2.306
313.15 K, 10000 kPa, Falling or rolling sphere viscometry	–	0.892	1.182	–	1.649	–	2.319
313.15 K, 20000 kPa, Falling or rolling sphere viscometry	–	0.896	1.19	–	1.668	–	2.352
313.15 K, 30000 kPa, Falling or rolling sphere viscometry	–	0.899	1.197	–	1.686	–	2.384
313.15 K, 40000 kPa, Falling or rolling sphere viscometry	–	0.902	1.205	–	1.702	–	2.416
313.15 K, 60000 kPa, Falling or rolling sphere viscometry	–	0.91	1.219	–	1.735	–	2.479
313.15 K, 80000 kPa, Falling or rolling sphere viscometry	–	0.918	1.232	–	1.77	–	2.544
313.15 K, 100000 kPa, Falling or rolling sphere viscometry	–	0.927	1.249	–	1.804	–	2.609
313.15 K, 120000 kPa, Falling or rolling sphere viscometry	–	0.936	1.263	–	1.846	–	2.675
333.15 K, 93 kPa, Concentric cylinders viscometry	0.6263	–	0.7832	1.084	–	1.405	–
333.15 K, 100 kPa, Falling or rolling sphere viscometry	–	0.615	0.78	–	1.061	–	1.389
333.15 K, 101 kPa, Falling or rolling sphere viscometry	0.615	–	0.78	1.061	–	1.389	–
333.15 K, 5000 kPa, Falling or rolling sphere viscometry	–	0.614	0.788	–	1.067	–	1.401
333.15 K, 10000 kPa, Falling or rolling sphere viscometry	–	0.617	0.792	–	1.075	–	1.41
333.15 K, 20000 kPa, Falling or rolling sphere viscometry	–	0.622	0.799	–	1.089	–	1.434
333.15 K, 30000 kPa, Falling or rolling sphere viscometry	–	0.625	0.807	–	1.103	–	1.453

mass density [kg/m3]
Settings	w1 = 0.1001	w1 = 0.2	w1 = 0.3005	w1 = 0.4
293.15 K, 100 kPa	1002.5	1006.9	1012.3	1018.1
293.15 K, 500 kPa	1002.7	1007	1012.5	1018.1
293.15 K, 1000 kPa	1002.9	1007.2	1012.7	1018.3
293.15 K, 2000 kPa	1003.3	1007.6	1013	1018.6
293.15 K, 5000 kPa	1004.6	1008.7	1014.1	1019.6
293.15 K, 10000 kPa	1006.7	1010.7	1016	1021.4
293.15 K, 15000 kPa	1008.8	1012.6	1017.7	1023.1
293.15 K, 20000 kPa	1010.9	1014.5	1019.6	1024.8
293.15 K, 30000 kPa	1015.1	1018.4	1023.2	1028.3
293.15 K, 40000 kPa	1019.1	1022.1	1026.6	1031.6
293.15 K, 50000 kPa	1023	1025.8	1030	1034.8
293.15 K, 60000 kPa	1026.9	1029.4	1033.5	1038.1
293.15 K, 70000 kPa	1030.8	1033	1036.9	1041.4
293.15 K, 80000 kPa	1034.5	1036.2	1040	1044.3
293.15 K, 90000 kPa	1038.2	1039.7	1043.3	1047.5
293.15 K, 100000 kPa	1041.8	1043.2	1046.6	1050.4
293.15 K, 110000 kPa	1045.2	1046.4	1049.6	1053.3
293.15 K, 120000 kPa	1048.8	1049.6	1052.6	1056.3
313.15 K, 100 kPa	995.9	999.1	1003.2	1007.5
313.15 K, 500 kPa	996	999.2	1003.4	1007.7
313.15 K, 1000 kPa	996.3	999.4	1003.6	1007.9
313.15 K, 2000 kPa	996.6	999.8	1004	1008.3
313.15 K, 5000 kPa	997.9	1001	1005.1	1009.3
313.15 K, 10000 kPa	1000	1002.9	1007	1011.2
313.15 K, 15000 kPa	1002	1004.8	1008.8	1012.9
313.15 K, 20000 kPa	1004	1006.7	1010.6	1014.7
313.15 K, 30000 kPa	1008.1	1010.5	1014.3	1018.2
313.15 K, 40000 kPa	1012.1	1014.3	1017.9	1021.7
313.15 K, 50000 kPa	1015.9	1017.9	1021.3	1025.1
313.15 K, 60000 kPa	1019.8	1021.5	1024.8	1028.4
313.15 K, 70000 kPa	1023.4	1025	1028.2	1031.7
313.15 K, 80000 kPa	1027	1028.5	1031.4	1034.8
313.15 K, 90000 kPa	1030.6	1031.8	1034.5	1037.8
313.15 K, 100000 kPa	1034.2	1035.1	1037.9	1041.1
313.15 K, 110000 kPa	1037.6	1038.4	1041	1044
313.15 K, 120000 kPa	1041.1	1041.8	1044.1	1047
333.15 K, 100 kPa	986.3	988.8	992	995.3
333.15 K, 500 kPa	986.5	988.9	992.3	995.6
333.15 K, 1000 kPa	986.7	989.1	992.4	995.8
333.15 K, 2000 kPa	987.1	989.5	992.8	996.2
333.15 K, 5000 kPa	988.4	990.7	994	997.3
333.15 K, 10000 kPa	990.5	992.7	996	999.3
333.15 K, 15000 kPa	992.6	994.7	997.9	1001.1
333.15 K, 20000 kPa	994.6	996.6	999.7	1003
333.15 K, 30000 kPa	998.6	1000.5	–	–
